Source: US20240208940A1, “SMALL-MOLECULE INHIBITORS FOR BETA-CATENIN/BCELL LYMPHOMA 9 PROTEIN-PROTEIN INTERACTION” (H. LEE MOFFITT CANCER CENTER AND RESEARCH INSTITUTE, INC., priority 2021, published 2024)
Structures can show the parent of a compound that is named as a salt.

Target: β-catenin/BCL9 PPI (Homo sapiens (Human), UniProt P35222)
Assay: AlphaScreen competitive inhibition assay of β-catenin/BCL9 PPI
Assay type: binding
Details: mean ± standard deviation (n = 3); for Ki: derived from IC50, read-out: Ki ± SD
Protocol: AlphaScreen Assays of β-Catenin and BCL9 Interaction. Experiments were performed in white opaque 384-well plates from PerkinElmer (Waltham, MA), and the samples were read on a Biotek Synergy 2 plate reader (Winooski, VT) with excitation at 680 nm and emission at 570 nm. The standard AlphaScreen protocol was used with a sensitivity setting of 200. All dilutions were made in 1× assay buffer containing 25 mM Hepes (pH 7.4), 100 mM NaCl, 0.01% Triton X-100 and 0.1% BSA to minimize nonspecific interactions. For the competitive inhibition assays of β-catenin/BCL9 PPI, the negative control (equivalent to 0% inhibition) refers to 5.0 nM biotinylated BCL9, 50 nM His6-tagged β-catenin, and 10 μg/mL donor and acceptor beads in a final volume of 25 μL assay buffer, but no tested inhibitor present. The positive control (equivalent to 100% inhibition) refers to 5.0 nM biotinylated BCL9 and 10 μg/mL donor and acceptor beads in a final volume of 25 μL assay buffer.
For the β-catenin/BCL9 assay, 5 nM biotinylated BCL9 and 50 nM His6-tagged β-catenin were incubated in assay buffer for 30 min. Different concentrations of the tested inhibitor were added and incubated in 20 μL assay buffer for another 1 h. All of the assay plates were covered and gently mixed on an orbital shaker. The donor and acceptor beads were then added to the plates to a final concentration of 10 μg/mL in 25 μL assay buffer. The mixture was incubated for 1 h before detection. The IC50 value was determined by nonlinear least-square analysis of GraphPad Prism 8.0. The Ki values were derived from the IC50 values using a method reported by Wang and coworkers.^65 The equation used is Ki=[I]50/([L]50/Kd+[P]0/Kd+1) (Where [I]50 denotes the concentration of the free inhibitor at 50% inhibition, [L]50 is the concentration of the free labeled ligand at 50% inhibition, [P]0 is the concentration of the free protein at 0% inhibition, and Kd is the dissociation constant of the protein-ligand complex). All of the experiments were performed in triplicate and carried out in the presence of 1% DMSO for small-molecule inhibitors. Each compound was assayed at least by three independent experiments. The results were expressed as mean±standard deviation.

Chain of β-catenin/BCL9 PPI (P35222 whole entry): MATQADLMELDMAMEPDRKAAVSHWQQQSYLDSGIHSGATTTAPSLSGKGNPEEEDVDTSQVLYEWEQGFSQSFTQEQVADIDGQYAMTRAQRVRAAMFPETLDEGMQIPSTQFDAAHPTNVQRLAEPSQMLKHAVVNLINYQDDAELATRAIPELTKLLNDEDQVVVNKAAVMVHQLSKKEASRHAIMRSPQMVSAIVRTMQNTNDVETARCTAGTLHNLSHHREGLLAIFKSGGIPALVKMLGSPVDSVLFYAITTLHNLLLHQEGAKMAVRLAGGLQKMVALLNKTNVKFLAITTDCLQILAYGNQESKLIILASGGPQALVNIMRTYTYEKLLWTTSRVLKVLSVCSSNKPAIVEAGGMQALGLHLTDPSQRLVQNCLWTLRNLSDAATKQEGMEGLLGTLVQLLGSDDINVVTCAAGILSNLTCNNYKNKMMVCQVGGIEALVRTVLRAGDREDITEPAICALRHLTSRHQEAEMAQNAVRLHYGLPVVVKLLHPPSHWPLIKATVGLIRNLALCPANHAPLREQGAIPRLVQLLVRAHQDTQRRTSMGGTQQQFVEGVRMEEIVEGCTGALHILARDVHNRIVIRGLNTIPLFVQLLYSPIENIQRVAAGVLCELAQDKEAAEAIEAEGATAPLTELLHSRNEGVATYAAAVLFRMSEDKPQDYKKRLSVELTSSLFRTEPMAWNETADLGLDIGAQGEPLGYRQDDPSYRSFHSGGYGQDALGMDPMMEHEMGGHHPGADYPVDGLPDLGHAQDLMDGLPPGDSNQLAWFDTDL

Ki | IC50 | SMILES
≤ 50 µM | ≤ 50 µM | CC(C)(O)C1CCN(c2cc(C(=O)N3CCC(Oc4cc(F)cc(N5CCNCC5)c4)CC3)ccc2O[C@H]2CCNC2)CC1 [Compound 29, (4-(3-fluoro-5-(piperazin-1-yl)phenoxy)piperidin-1-yl)(3-(4-(2-hydroxypropan-2-yl)piperidin-1-yl)-4-(pyrrolidin-3-yloxy)phenyl)methanone]
~81 µM | ~100 µM | CN(C)C(=O)c1ccc(N2CCNCC2)cc1OC1CCN(C(=O)c2ccc(O[C@H]3CCNC3)c(C3CCC(C(C)(C)C)CC3)c2)CC1 (stereo in doubt) [Compound 43, cis- and trans-(S)-2-((1-(3-(4-(tert-butyl)cyclohexyl)-4-(pyrrolidin-3-yloxy)benzoyl)piperidin-4-yl)oxy)-N,N-dimethyl-4-(piperazin-1-yl)benzamide dihydrochloride]
≤ 5 µM | ≤ 5 µM | O=C(c1ccc(O[C@H]2CCNC2)c(-c2ccc3ccsc3c2)c1)N1CCC(Oc2cc(F)cc(N3CCNCC3)c2)CC1 [Compound 11, (S)-(3-(benzo[b]thiophen-6-yl)-4-(pyrrolidin-3-yloxy)phenyl)(4-(3-fluoro-5-(piperazin-1-yl)phenoxy)piperidin-1-yl)methanone dihydrochloride]
≤ 50 µM | ≤ 50 µM | O=C(c1ccc(O[C@H]2CCNC2)c(-c2ccc3[nH]cnc3c2)c1)N1CCC(Oc2cc(F)cc(N3CCNCC3)c2)CC1 [Compound 16, (S)-(3-(1H-benzo[d]imidazol-5-yl)-4-(pyrrolidin-3-yloxy)phenyl)(4-(3-fluoro-5-(piperazin-1-yl)phenoxy)piperidin-1-yl)methanone dihydrochloride]
≤ 100 µM | ≤ 100 µM | O=C(c1ccc(O[C@H]2CCNC2)c(N2CCC(C(F)(F)F)CC2)c1)N1CCC(Oc2cc(F)cc(N3CCNCC3)c2)CC1 [Compound 26, (S)-(4-(3-fluoro-5-(piperazin-1-yl)phenoxy)piperidin-1-yl)(4-(pyrrolidin-3-yloxy)-3-(4-(trifluoromethyl)piperidin-1-yl)phenyl)methanone dihydrochloride]
≤ 2 µM | ≤ 2 µM | O=C(c1ccc(O[C@H]2CCNC2)c(-c2cn[nH]c2)c1)N1CCC(Oc2cc(F)cc(N3CCNCC3)c2)CC1 [Compound 17, (S)-(3-(1H-pyrazol-4-yl)-4-(pyrrolidin-3-yloxy)phenyl)(4-(3-fluoro-5-(piperazin-1-yl)phenoxy)piperidin-1-yl)methanone dihydrochloride]
≤ 50 µM | ≤ 50 µM | CC(O)C(=O)N1CCC(c2cc(C(=O)N3CCC(Oc4cc(F)cc(N5CCNCC5)c4)CC3)ccc2O[C@H]2CCNC2)CC1 (stereo partly drawn) [Compound 23, 1-(4-(5-(4-(3-fluoro-5-(piperazin-1-yl)phenoxy)piperidine-1-carbonyl)-2-(((S)-pyrrolidin-3-yl)oxy)phenyl)piperidin-1-yl)-2-hydroxypropan-1-one dihydrochloride]
> 84 µM | > 100 µM | O=C(c1ccc(O[C@H]2CCNC2)c(C2CCCCC2)c1)N1CCC(Oc2cc(F)cc(N3C[C@H]4CNC[C@H]4C3)c2)CC1 [Compound 4, (S)-(3-cyclohexyl-4-(((S)-pyrrolidin-3-yl)oxy)phenyl)(4-(3-fluoro-5-((3aR,6aS)-hexahydropyrrolo[3,4-c]pyrrol-2(1H)-yl)phenoxy)piperidin-1-yl)methanone ditrifluoroacetic acid]
≤ 20 µM | ≤ 20 µM | O=C(c1ccc(O[C@H]2CCNC2)c(-c2ccc(C(F)(F)F)cc2)c1)N1CCC(Oc2cc(F)cc(N3CCNCC3)c2)CC1 [Compound 9, (S)-(4-(3-fluoro-5-(piperazin-1-yl)phenoxy)piperidin-1-yl)(6-(pyrrolidin-3-yloxy)-4′-(trifluoromethyl)-[1,1′-biphenyl]-3-yl)methanone dihydrochloride]
≤ 30 µM | ≤ 30 µM | CC(C)(C)C1CCN(c2cc(C(=O)N3CCC(Oc4cc(F)cc(N5CCNCC5)c4)CC3)ccc2O[C@H]2CCNC2)CC1 [Compound 27, (S)-(3-(4-(tert-butyl)piperidin-1-yl)-4-(pyrrolidin-3-yloxy)phenyl)(4-(3-fluoro-5-(piperazin-1-yl)phenoxy)piperidin-1-yl)methanone dihydrochloride]
≤ 50 µM | ≤ 50 µM | CNC(=O)c1ccc(N2CCNCC2)cc1OC1CCN(C(=O)c2ccc(O[C@H]3CCNC3)c(C3CCC(C(C)(C)C)CC3)c2)CC1 (stereo in doubt) [Compound 42, cis- and trans-(S)-2-((1-(3-(4-(tert-butyl)cyclohexyl)-4-(pyrrolidin-3-yloxy)benzoyl)piperidin-4-yl)oxy)-N-methyl-4-(piperazin-1-yl)benzamide dihydrochloride]
≤ 20 µM | ≤ 20 µM | CC(C)(C)c1ccc(-c2cc(C(=O)N3CCC(Oc4cc(F)cc(N5CCNCC5)c4)CC3)ccc2O[C@H]2CCNC2)cc1 [Compound 10, (S)-(4′-(tert-butyl)-6-(pyrrolidin-3-yloxy)-[1,1′-biphenyl]-3-yl)(4-(3-fluoro-5-(piperazin-1-yl)phenoxy)piperidin-1-yl)methanone dihydrochloride]

SMILES | Ki | IC50
O=C(c1ccc(O[C@H]2CCNC2)c(C2CCCCC2)c1)N1CCC(Oc2cc(F)cc(N3CCNCC3)c2)CC1 [Compound 1, (S)-(3-cyclohexyl-4-(pyrrolidin-3-yloxy)phenyl)(4-(3-fluoro-5-(piperazin-1-yl)phenoxy)piperidin-1-yl)methanone dihydrochloride] | ≤ 50 µM | ≤ 60 µM
O=C(c1ccc(O[C@H]2CCNC2)c(-c2ccc3cn[nH]c3c2)c1)N1CCC(Oc2cc(F)cc(N3CCNCC3)c2)CC1 [Compound 15, (S)-(3-(1H-indazol-6-yl)-4-(pyrrolidin-3-yloxy)phenyl)(4-(3-fluoro-5-(piperazin-1-yl)phenoxy)piperidin-1-yl)methanone dihydrochloride] | ≤ 20 µM | ≤ 20 µM
O=C(c1ccc(O[C@H]2CCNC2)c(N2CCCCC2)c1)N1CCC(Oc2cc(F)cc(N3CCNCC3)c2)CC1 [Compound 25, (S)-(4-(3-fluoro-5-(piperazin-1-yl)phenoxy)piperidin-1-yl)(3-(piperidin-1-yl)-4-(pyrrolidin-3-yloxy)phenyl)methanone dihydrochloride] | ≤ 60 µM | ≤ 60 µM
O=C(c1ccc(O[C@H]2CCNC2)c(C2CCC(C(F)(F)F)CC2)c1)N1CCC(Oc2cc(F)cc(N3CCNCC3)c2)CC1 (stereo in doubt) [Compound 18, cis- and trans-(S)-(4-(3-fluoro-5-(piperazin-1-yl)phenoxy)piperidin-1-yl)(4-(pyrrolidin-3-yloxy)-3-(4-(trifluoromethyl)cyclohexyl)phenyl)methanone dihydrochloride] | ≤ 20 µM | ≤ 20 µM
CC(C)(C)C1CCC(c2cc(C(=O)N3CCC(Oc4cccc(N5CCNCC5)c4)CC3)ccc2O[C@H]2CCNC2)CC1 (stereo in doubt) [Compound 38, cis and trans-(S)-(3-(4-(tert-butyl)cyclohexyl)-4-(pyrrolidin-3-yloxy)phenyl)(4-(3-(piperazin-1-yl)phenoxy)piperidin-1-yl)methanone dihydrochloride] | ≤ 20 µM | ≤ 20 µM
CC1(O)CCN(c2cc(C(=O)N3CCC(Oc4cc(F)cc(N5CCNCC5)c4)CC3)ccc2O[C@H]2CCNC2)CC1 [Compound 28] | ≤ 20 µM | ≤ 20 µM
CC(C)(C)C1CCC(c2cc(C(=O)N3CCC(Oc4cc(N5CCNCC5)ccc4C#N)CC3)ccc2O[C@H]2CCNC2)CC1 (stereo in doubt) [Compound 37, cis- and trans-(S)-2-((1-(3-(4-(tert-butyl)cyclohexyl)-4-(pyrrolidin-3-yloxy)benzoyl)piperidin-4-yl)oxy)-4-(piperazin-1-yl)benzonitrile dihydrochloride] | ≤ 2 µM | ≤ 2 µM
CC(C)(C)C1CCC(c2cc(C(=O)N3CCC(Oc4ccc(F)c(N5CCNCC5)c4)CC3)ccc2O[C@H]2CCNC2)CC1 (stereo in doubt) [Compound 33, cis- and trans-(S)-(3-(4-(tert-butyl)cyclohexyl)-4-(pyrrolidin-3-yloxy)phenyl)(4-(4-fluoro-3-(piperazin-1-yl)phenoxy)piperidin-1-yl)methanone dihydrochloride] | ≤ 10 µM | ≤ 10 µM
O=C(c1ccc(O[C@H]2CCNC2)c(C2CCCCC2)c1)N1CCC(Oc2cc(F)cc(N3CCC4(CC3)CNC4)c2)CC1 [Compound 3, (S)-(3-cyclohexyl-4-(pyrrolidin-3-yloxy)phenyl)(4-(3-fluoro-5-(2,7-diazaspiro[3.5]nonan-7-yl)phenoxy)piperidin-1-yl)methanone ditrifluoroacetic acid] | > 84 µM | > 100 µM
